In patent US8575156B2, “Cyclic inhibitors of 11β-hydroxysteroid dehydrogenase 1” (Vitae Pharmaceuticals, Inc., priority 2007, dated 2013):
Read-outs that look alike come from different tables or passages of the source.

Legend:
11β-HSD1 [1] = molecular target: T1, 11β-HSD1 (Homo sapiens, UniProt P28845); assay: biochemical; settings: for inhibition at 0.1111 µM: read-out: Average % inhibition at 111.1 nM, Biological Test Example 1, 111.1 nM compound; for IC50: IC50 Range, Biological Test Example 1, microsomes from CHO cells overexpressing human 11β-HSD1; for inhibition at 0.1 µM: read-out: Average % inhibition at 100 nM, Biological Test Example 1, 100 nM compound
11β-HSD1 [2] = molecular target: T1, 11β-HSD1; settings: for IC50: read-out: IC50 Range
[3] = Biological Test Example 1, 100 nM compound, 0.1 µM
[4] = Biological Test Example 1, microsomes from CHO cells overexpressing human 11β-HSD1
[5] = Biological Test Example 1, 111.1 nM compound, 0.1111 µM
[6] = Biological Test Example 1, 100 nM, 0.1 µM

T1 sequence (P28845 whole entry): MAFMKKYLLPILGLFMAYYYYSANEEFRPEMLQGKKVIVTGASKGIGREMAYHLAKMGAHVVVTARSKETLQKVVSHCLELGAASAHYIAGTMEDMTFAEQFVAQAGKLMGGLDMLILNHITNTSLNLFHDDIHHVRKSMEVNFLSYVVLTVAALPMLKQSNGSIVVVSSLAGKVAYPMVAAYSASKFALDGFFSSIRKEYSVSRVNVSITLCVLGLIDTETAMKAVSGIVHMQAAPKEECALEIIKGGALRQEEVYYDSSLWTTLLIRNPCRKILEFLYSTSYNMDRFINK

Row | Compound | Average % inhibition at 100 nM (11β-HSD1 [2]; [3]) [%] | IC50 (11β-HSD1 [2]; [4]) [nM] | IC50 (11β-HSD1 [1]) [nM] | other results
1 | O=C1OC(CCO)(c2ccccc2)CCN1c1ccc(F)c(-c2ccc(F)cc2)c1 (single isomer, unassigned) [EXAMPLE 96 Isomer 1] | – | – | < 100 | inhibition at 0.1 µM (11β-HSD1 [1]): 88.3%; Average % inhibition at 111.1 nM (11β-HSD1 [2]; [5]): 98.5%
2 | O=C1OC(CCO)(c2ccccc2)CCN1c1ccc(F)c(-c2ccc(F)cc2)c1 (single isomer, unassigned) [EXAMPLE 96 Isomer 2] | – | – | > 1000 | Average % inhibition at 111.1 nM (11β-HSD1 [2]; [5]): 9.7%
3 | O=C1OC(CCO)(c2ccccc2F)CCN1c1cccc(-c2ccc(F)cc2)n1 (single isomer, unassigned) [EXAMPLE 104 Isomer 1] | – | – | 100 to 1000 | Average % inhibition at 111.1 nM (11β-HSD1 [2]; [5]): 44.3%
4 | O=C1OC(CCO)(c2ccccc2F)CCN1c1cccc(-c2ccc(F)cc2)n1 (single isomer, unassigned) [EXAMPLE 104 Isomer 2] | – | – | < 100 | Average % inhibition at 111.1 nM (11β-HSD1 [2]; [5]): 98.1%
5 | C=CCC1(c2cccs2)CCN([C@@H](C)c2ccc(Br)cc2)C(=O)O1 (single isomer, unassigned) [EXAMPLE 157 Isomer 2] | 92.9 | < 100 | – | inhibition at 0.1111 µM (11β-HSD1 [1]): 90.7%
6 | C=CCC1(c2cccs2)CCN([C@@H](C)c2ccc(-c3ccc(F)cc3)cc2)C(=O)O1 (single isomer, unassigned) [EXAMPLE 160 Isomer 2] | – | < 100 | – | inhibition at 0.1 µM (11β-HSD1 [1]): 95.9%; Average % inhibition at 111.1 nM (11β-HSD1 [2]; [5]): 95.2%
7 | C[C@@H](c1ccc(-c2ccc(F)cc2F)cc1)N1CCC(CCCO)(c2cccs2)OC1=O (single isomer, unassigned) [EXAMPLE 171 Isomer 1] | 95.7 | – | < 100 | –
8 | CC(C)C1(CCCO)CCN([C@@H](C)c2ccc(Cl)cc2)C(=O)O1 (single isomer, unassigned) [EXAMPLE 187 Isomer 1] | – | – | < 100 | Average % inhibition at 100 nM (11β-HSD1 [2]; 0.1 µM): 98.7%
9 | O=C1OC(CCCO)(c2ccccc2)CCN1C1CC1c1ccccc1 (single isomer, unassigned) [EXAMPLE 188 Isomer 1, 6-(3-hydroxypropyl)-6-phenyl-3-(2-phenylcyclopropyl)-1,3-oxazinan-2-one] | 77.0 | – | < 100 | –
10 | O=C1OC(CCCO)(c2ccccc2)CCN1C1CC1c1ccccc1 (single isomer, unassigned) [EXAMPLE 188 Isomer 2, 6-(3-hydroxypropyl)-6-phenyl-3-(2-phenylcyclopropyl)-1,3-oxazinan-2-one] | 31.7 | – | > 100 | –
11 | CC(C)(C)OC(=O)N1CCC(N2CCC(CCCO)(c3ccccc3)OC2=O)C1 (single isomer, unassigned) [EXAMPLE 208 Isomer 1] | 76.6 | – | < 100 | –
12 | CC(C)(C)OC(=O)N1CCC(N2CCC(CCCO)(c3ccccc3)OC2=O)C1 (single isomer, unassigned) [EXAMPLE 208 Isomer 2] | 38.5 | – | > 100 | –
13 | CC(C)(C)OC(=O)N1CCC(N2CCC(CCCO)(c3ccccc3)OC2=O)C1 (single isomer, unassigned) [EXAMPLE 208 Isomer 3] | 64.6 | – | < 100 | –
14 | CC(C)(C)OC(=O)N1CCC(N2CCC(CCCO)(c3ccccc3)OC2=O)C1 (single isomer, unassigned) [EXAMPLE 208 Isomer 4] | 29.3 | – | < 100 | –
15 | C[C@@H](c1ccc(-c2ccc(F)cc2)cc1)N1CC[C@](CC(O)CNS(C)(=O)=O)(c2ccc(F)cc2)OC1=O (single isomer, unassigned) [EXAMPLE 277 Isomer 2] | – | – | – | Average % inhibition at 100 nM (11β-HSD1 [2]; 0.1 µM): 65.6%; IC50 (11β-HSD1 [2]): < 100 nM
16 | C=CCCC1(c2ccc(F)cc2)CCN([C@@H](C)c2ccc(OC(F)F)cc2)C(=O)O1 (single isomer, unassigned) [EXAMPLE 323 Isomer 2] | – | < 100 | – | Average % inhibition at 100 nM (11β-HSD1 [2]; 0.1 µM): 100.9%
17 | C[C@@H](c1ccc(Br)cc1)N1CCC(CCCO)(C(C)(C)C)OC1=O (single isomer, unassigned) [EXAMPLE 335 Isomer 2] | – | < 100 | – | Average % inhibition at 100 nM (11β-HSD1 [2]; [6]): 96.7%
18 | C[C@@H](c1ccc(-c2ccc(F)cc2F)cc1)N1CCC(CCO)(C(C)(C)C)OC1=O (single isomer, unassigned) [EXAMPLE 336 Isomer 2] | – | < 100 | – | Average % inhibition at 100 nM (11β-HSD1 [2]; [6]): 94.6%
19 | (R)-3-((S)-1-(2′,4′-difluorobiphenyl-4-yl)propyl)-6-(4-fluorophenyl)-6-(2-hydroxyethyl)-1,3-oxazinan-2-one [EXAMPLE 175 Isomer 2] | – | – | – | Average % inhibition at 111.1 nM (11β-HSD1 [2]): 25.8%; IC50 (11β-HSD1 [2]): 100 to 1000 nM
20 | (R)-6-(3-hydroxypropyl)-3-((S)-1-(4-methoxyphenyl)ethyl)-6-phenyl-1,3-oxazinan-2-one [EXAMPLE 282 Isomer 1] | – | – | – | Average % inhibition at 100 nM (11β-HSD1 [2]): 94.0%; IC50 (11β-HSD1 [2]): < 100 nM
21 | (S)-3-((S)-1-(2′,4′-difluorobiphenyl-4-yl)propyl)-6-(4-fluorophenyl)-6-(2-hydroxyethyl)-1,3-oxazinan-2-one [EXAMPLE 175 Isomer 1] | – | – | – | Average % inhibition at 111.1 nM (11β-HSD1 [2]): 93.7%; IC50 (11β-HSD1 [2]): < 100 nM
22 | (S)-6-(3-hydroxypropyl)-3-((S)-1-(4-methoxyphenyl)ethyl)-6-phenyl-1,3-oxazinan-2-one [EXAMPLE 282 Isomer 2] | – | – | – | Average % inhibition at 100 nM (11β-HSD1 [2]): 77.8%; IC50 (11β-HSD1 [2]): < 100 nM

Second part, led by results:

Row | Average % inhibition at 100 nM (11β-HSD1 [2]; [3]) [%] | IC50 (11β-HSD1 [2]; [4]) [nM] | IC50 (11β-HSD1 [1]) [nM] | Compound | other results
23 | 90.8 | < 100 | – | C[C@@H](c1ccc(-c2ccc(F)cc2F)cc1)N1CC[C@](CC(O)CO)(c2ccc(F)cc2)OC1=O (single isomer, unassigned) [EXAMPLE 52 Isomer 2] | inhibition at 0.1111 µM (11β-HSD1 [1]): 97%
24 | 17.4 | – | > 1000 | C[C@@H](c1ccccc1)N1CCC(CO)(c2ccc(F)cc2)OC1=O (single isomer, unassigned) [EXAMPLE 114 Isomer 1] | –
25 | 66.6 | – | < 100 | C[C@@H](c1ccccc1)N1CCC(CO)(c2ccc(F)cc2)OC1=O (single isomer, unassigned) [EXAMPLE 114 Isomer 2] | –
26 | – | – | 100 to 1000 | C=CCC1(c2ccc(F)cc2)CCN([C@@H](C)c2ccc(Br)cn2)C(=O)O1 (single isomer, unassigned) [EXAMPLE 128 Isomer 1] | inhibition at 0.1 µM (11β-HSD1 [1]): 26.1%; Average % inhibition at 111.1 nM (11β-HSD1 [2]; [5]): 27.5%
27 | – | – | > 1000 | C=CCC1(c2ccc(F)cc2)CCN([C@@H](C)c2ccc(Br)cn2)C(=O)O1 (single isomer, unassigned) [EXAMPLE 128 Isomer 2] | Average % inhibition at 111.1 nM (11β-HSD1 [2]; [5]): 6.5%
28 | – | < 100 | – | C=CCC1(c2ccc(F)cc2)CCN([C@@H](CC)c2ccc(Br)cc2)C(=O)O1 (single isomer, unassigned) [EXAMPLE 130 Isomer 2] | inhibition at 0.1111 µM (11β-HSD1 [1]): 87.7%
29 | – | < 100 | – | CC[C@@H](c1ccc(Br)cc1)N1CCC(CCO)(c2ccc(F)cc2)OC1=O (single isomer, unassigned) [EXAMPLE 143 Isomer 2] | inhibition at 0.1 µM (11β-HSD1 [1]): 95.4%
30 | – | < 100 | – | C[C@@H](c1ccc(Br)cc1)N1CC[C@](CC(O)CO)(c2ccc(F)cc2)OC1=O (single isomer, unassigned) [EXAMPLE 144 Isomer 2] | inhibition at 0.1 µM (11β-HSD1 [1]): 95.3%; Average % inhibition at 111.1 nM (11β-HSD1 [2]; [5]): 96.6%
31 | 96.9 | – | < 100 | CC1CC(CCO)(c2ccc(F)cc2)OC(=O)N1[C@@H](C)c1ccc(Br)cc1 (single isomer, unassigned) [EXAMPLE 163 Isomer 2] | –
32 | 11.3 | – | > 100 | CC1CC(CCO)(c2ccc(F)cc2)OC(=O)N1[C@@H](C)c1ccc(Br)cc1 (single isomer, unassigned) [EXAMPLE 163 Isomer 3] | –
33 | 93.2 | – | < 100 | COc1ccc([C@H](C)N2CCC(CCCO)(c3ccc(F)cc3)OC2=O)cc1 (single isomer, unassigned) [EXAMPLE 201 Isomer 1] | –
34 | 27.0 | – | > 100 | COc1ccc([C@H](C)N2CCC(CCCO)(c3ccc(F)cc3)OC2=O)cc1 (single isomer, unassigned) [EXAMPLE 201 Isomer 2] | –
35 | 65.5 | < 100 | – | C[C@@H](c1ccc(-c2ccc(F)cc2)cc1)N1CC[C@](CC(O)CN(C)S(C)(=O)=O)(c2ccc(F)cc2)OC1=O (single isomer, unassigned) [EXAMPLE 278 Isomer 2] | –
36 | – | < 100 | – | C[C@@H](c1ccc(Br)cc1)N1CCC(CCO)(c2ccc(F)cc2F)OC1=O (single isomer, unassigned) [EXAMPLE 365 Isomer 2] | Average % inhibition at 100 nM (11β-HSD1 [2]; [6]): 61.1%
37 | – | < 100 | – | CC(O)C[C@]1(c2ccc(F)cc2)CCN([C@@H](C)c2ccc(Br)cc2)C(=O)O1 (single isomer, unassigned) [EXAMPLE 371 Isomer 2] | Average % inhibition at 100 nM (11β-HSD1 [2]; [6]): 97.4%
38 | – | < 100 | – | CC(O)CC[C@]1(c2ccc(F)cc2)CCN([C@@H](C)c2ccc(Cl)cc2)C(=O)O1 (single isomer, unassigned) [EXAMPLE 383 Isomer 2] | Average % inhibition at 100 nM (11β-HSD1 [2]; [6]): 95.3%
39 | – | < 100 | – | CC(O)C[C@]1(c2ccc(F)cc2)CCN([C@@H](C)c2ccc(C(F)(F)F)cc2)C(=O)O1 (single isomer, unassigned) [EXAMPLE 388 Isomer 2] | Average % inhibition at 100 nM (11β-HSD1 [2]; [6]): 94.7%
40 | – | < 100 | – | CC(O)CC[C@]1(c2ccc(F)cc2)CCN([C@@H](C)c2ccc(F)cc2)C(=O)O1 (single isomer, unassigned) [EXAMPLE 411 Isomer 2] | Average % inhibition at 100 nM (11β-HSD1 [2]; [6]): 93.1%
41 | – | < 100 | – | CC(C[C@]1(c2ccc(F)cc2)CCN([C@@H](C)c2ccc(Br)cc2)C(=O)O1)C(N)=O (single isomer, unassigned) [EXAMPLE 523 Isomer 2] | Average % inhibition at 100 nM (11β-HSD1 [2]; [6]): 85.4%
42 | – | < 100 | – | CC(CO)C[C@]1(c2ccc(F)cc2)CCN([C@@H](C)c2ccc(Br)cc2)C(=O)O1 (single isomer, unassigned) [EXAMPLE 577 Isomer 2] | Average % inhibition at 100 nM (11β-HSD1 [2]; [6]): 94.7%
